Laboratory results: patent US4426519A, “7-(2-Amino-4-thiazolyl)-acetamido cephalosporanic acids” (Roussel Uclaf, priority 1979, dated 1984)
≈ marks a conversion by molar mass, not a printed value. Like-named read-outs stand apart in the source and are kept apart here.

How the values were obtained:
Test in all cases: MIC, dilution in liquid medium
Type in all cases: cell-based
[1] = tested on: Klebsiella pneumoniae Exp. 52 145; settings: read-out: MIC
Experimental: (§1) The method used was a dilution of a liquid medium where a series of tubes received the same quantity of a sterile nutritive media and increasing doses of the test compounds were placed therein. Then each tube was seeded with a bacterial strain and was incubated for 24 to 48 hours at 37° C. in an oven. The increasing inhibition was determined by transillulumination to determine the minimum inhibiting concentration (MIC in μg/ml) and the results are reported in the following Tables.

[2] = tested on: Staphylococcus aureus UC 1 128 Pen-resistant
Experimental: as §1

[3] = tested on: Klebsiella pneumoniae 2 536 Resistant Gentamycine; settings: read-out: MIC
Experimental: as §1

[4] = tested on: Staphylococcus aureus ATCC 6 538 Pen Sensitive
Experimental: as §1

[5] = tested on: Proteus mirabilis (indol-) A 235
Experimental: as §1

[6] = tested on: Streptococcus faecalis 5 432; settings: Enterococcus faecalis, 5432, 24 h
Experimental: as §1

[7] = tested on: Serratia Resistant Gentamycine 2 532; settings: read-out: MIC
Experimental: as §1

[8] = tested on: Streptococcus pyogenes A 561
Experimental: as §1

[9] = tested on: Bacillus subtilis ATCC 6 633
Experimental: as §1

[10] = tested on: Escherichia Coli sensitive Tetracycline ATCC 9 637
Experimental: as §1

[11] = tested on: Staphylococcus aureus exp.n°54 146
Experimental: as §1

[12] = tested on: Salmonella typhimurium 420; settings: Salmonella enterica, read-out: MIC
Experimental: as §1

[13] = tested on: Escherichia Coli Resistant Gentamycine, Tobramycine R 55 123 D; settings: read-out: MIC
Experimental: as §1

[14] = tested on: Escherichia Coli Resistant Tetracycline ATCC 11 303
Experimental: as §1

Providencia Du 48 = tested on: Providencia Du 48
Experimental: as §1

SMILES: CC(=O)OCC1=C(C(=O)O)N2C(=O)C(NC(=O)/C(=N\OC(F)F)c3csc(N)n3)C2SC1 (stereo not drawn) [Example 9, Syn isomer of 3-acetoxymethyl-7-[2-(2-amino-4-thiazolyl)-2-difluoromethoxyimino-acetamido]-ceph-3-eme-4-carboxylic acid]
- MIC ([1]; EXP.52145, 24 h): 0.05 µg/mL (≈ 0.102 µM)
- MIC ([1]; EXP.52145, 48 h): 0.05 µg/mL (≈ 0.102 µM)
- MIC ([2]; UC1, 24 h): 1 µg/mL (≈ 2.03 µM)
- MIC ([2]; UC1, 48 h): 2 µg/mL (≈ 4.07 µM)
- MIC ([3]; 24 h): 0.5 µg/mL (≈ 1.02 µM)
- MIC ([3]; 48 h): 0.5 µg/mL (≈ 1.02 µM)
- MIC ([4]; ATCC6, 24 h): 1 µg/mL (≈ 2.03 µM)
- MIC ([4]; ATCC6, 48 h): 1 µg/mL (≈ 2.03 µM)
- MIC ([5]; 24 h): 0.05 µg/mL (≈ 0.102 µM)
- MIC ([5]; 48 h): 0.05 µg/mL (≈ 0.102 µM)
- MIC [6]: 5 µg/mL (≈ 10.2 µM)
- MIC ([7]; 24 h): 0.5 µg/mL (≈ 1.02 µM)
- MIC ([7]; 48 h): 0.5 µg/mL (≈ 1.02 µM)
- MIC ([8]; A561, 24 h): 0.05 µg/mL (≈ 0.102 µM)
- MIC ([8]; A561, 48 h): 0.05 µg/mL (≈ 0.102 µM)
- MIC ([9]; ATCC6, 24 h): 1 µg/mL (≈ 2.03 µM)
- MIC ([9]; ATCC6, 48 h): 5 µg/mL (≈ 10.2 µM)
- MIC ([10]; ATCC9, 24 h, read-out: MIC): 0.5 µg/mL (≈ 1.02 µM)
- MIC ([10]; ATCC9, 48 h): 1 µg/mL (≈ 2.03 µM)
- MIC ([11]; 24 h): 1 µg/mL (≈ 2.03 µM)
- MIC ([11]; 48 h): 2 µg/mL (≈ 4.07 µM)
- MIC ([12]; 24 h): 0.5 µg/mL (≈ 1.02 µM)
- MIC ([12]; 48 h): 0.5 µg/mL (≈ 1.02 µM)
- MIC ([13]; 24 h): 0.2 µg/mL (≈ 0.407 µM)
- MIC ([13]; 48 h): 0.2 µg/mL (≈ 0.407 µM)
- MIC ([14]; ATCC11, 24 h): 0.05 µg/mL (≈ 0.102 µM)
- MIC ([14]; ATCC11, 48 h): 0.1 µg/mL (≈ 0.203 µM)
- MIC (Providencia Du 48; DU48, 24 h): 2 µg/mL (≈ 4.07 µM)
- MIC (Providencia Du 48; DU48, 48 h): 2 µg/mL (≈ 4.07 µM)
